Data taken from US11896573B2, “Pharmaceutical compositions and pharmacokinetics of a gamma-hydroxybutyric acid derivative” (priority 2020, dated 2024).

Assay: Single ascending dose study, plasma pharmacokinetics of Compound (1) and GHB
Type: in vivo, human
Conditions: fasted
Procedure: The plasma concentrations of Compound (1) and GHB in plasma in healthy human subjects were measured using liquid chromatography tandem mass-spectroscopy and evaluated using PHOENIX™ WINNONLIN® version 8.1 (Pharsight Corporation, USA) and MICROSOFT® EXCEL® (Microsoft Corporation, USA).
All randomized subjects who received Compound (1), with available pharmacokinetic (PK) data and without relevant deviations interfering with the PK evaluations, were included. Subjects who received only placebo were excluded from the PK population. In addition, the PK population was used for the summaries and analyses of all PK data.
A randomized, double-blind, single-center, single ascending dose study was undertaken to evaluate the safety, tolerability, and pharmacokinetics of Compound (1) and GHB in healthy subjects.
Compound (1) was administered to randomized healthy subjects at doses from 0.1 g to 7.25 g as an aqueous solution of Compound (1) in water. The subjects fasted for at least 10 hours overnight with clear liquids allowed prior to dosing and the subjects were fasted for 4 hours after dosing.
Plasma samples were obtained at various times following oral administration and the plasma concentrations of Compound (1) and GHB were measured.

[1] = Cohort 1 (0.10 g) single oral dose
[2] = Cohort 2 (0.50 g) single oral dose
[3] = Cohort 3 (1.50 g) single oral dose
[4] = Cohort 4 (3.00 g) single oral dose
[5] = Cohort 5 (4.50 g) single oral dose
[6] = Cohort 6 (6.00 g) single oral dose

CC(C)[C@H](N)C(=O)OCCCC(=O)O [Compound (1), 4-((L-valyl)oxy)butanoic acid]
Compound (1) CL/F, Max [1]: 554 L/h | Compound (1) CL/F, Mean [1]: 420 L/h | Compound (1) CL/F, Median [1]: 408 L/h | Compound (1) CL/F, Min [1]: 316 L/h | Compound (1) plasma AUC0-inf, Max [1]: 316 ng·h/mL | Compound (1) plasma AUC0-inf, Min [1]: 180 ng·h/mL | Compound (1) plasma AUC0-tlast, Max [1]: 315 ng·h/mL | Compound (1) plasma AUC0-tlast, Min [1]: 180 ng·h/mL | Compound (1) plasma Cmax, Max [1]: 669 ng/mL | Compound (1) plasma Cmax, Min [1]: 265 ng/mL | Compound (1) plasma t1/2, Max [1]: 0.92 h | Compound (1) plasma t1/2, Min [1]: 0.48 h | Compound (1) CL/F, Max [2]: 500 L/h | Compound (1) CL/F, Mean [2]: 400 L/h | Compound (1) CL/F, Median [2]: 396 L/h | Compound (1) CL/F, Min [2]: 309 L/h | Compound (1) plasma AUC0-inf, Max [2]: 1620 ng·h/mL | Compound (1) plasma AUC0-inf, Min [2]: 1000 ng·h/mL | Compound (1) plasma AUC0-tlast, Max [2]: 1610 ng·h/mL | Compound (1) plasma AUC0-tlast, Min [2]: 998 ng·h/mL | Compound (1) plasma Cmax, Max [2]: 2470 ng/mL | Compound (1) plasma Cmax, Min [2]: 1160 ng/mL | Compound (1) plasma Tmax, Max [2]: 1.50 h | Compound (1) plasma t1/2, Max [2]: 1.33 h | Compound (1) plasma t1/2, Min [2]: 0.71 h | Compound (1) CL/F, Max [3]: 959 L/h | Compound (1) CL/F, Mean [3]: 673 L/h | Compound (1) CL/F, Median [3]: 553 L/h | Compound (1) CL/F, Min [3]: 468 L/h | Compound (1) plasma AUC0-inf, Max [3]: 3210 ng·h/mL | Compound (1) plasma AUC0-inf, Min [3]: 1500 ng·h/mL | Compound (1) plasma AUC0-tlast, Max [3]: 4040 ng·h/mL | Compound (1) plasma AUC0-tlast, Min [3]: 1500 ng·h/mL | Compound (1) plasma Cmax, Max [3]: 5530 ng/mL | Compound (1) plasma Cmax, Min [3]: 2100 ng/mL | Compound (1) plasma Tmax, Max [3]: 1.50 h | Compound (1) plasma t1/2, Max [3]: 1.11 h | Compound (1) plasma t1/2, Min [3]: 0.97 h | Compound (1) CL/F, Max [4]: 545 L/h | Compound (1) CL/F, Mean [4]: 413 L/h | Compound (1) CL/F, Median [4]: 408 L/h | Compound (1) CL/F, Min [4]: 318 L/h | Compound (1) plasma AUC0-inf, Max [4]: 9430 ng·h/mL | Compound (1) plasma AUC0-inf, Min [4]: 5500 ng·h/mL | Compound (1) plasma AUC0-tlast, Max [4]: 9430 ng·h/mL | Compound (1) plasma AUC0-tlast, Min [4]: 5500 ng·h/mL | Compound (1) plasma Cmax, Max [4]: 15200 ng/mL | Compound (1) plasma Cmax, Min [4]: 7440 ng/mL | Compound (1) plasma t1/2, Max [4]: 1.54 h | Compound (1) plasma t1/2, Min [4]: 0.78 h | Compound (1) CL/F, Max [5]: 586 L/h | Compound (1) CL/F, Mean [5]: 416 L/h | Compound (1) CL/F, Median [5]: 389 L/h | Compound (1) CL/F, Min [5]: 353 L/h | Compound (1) plasma AUC0-inf, Max [5]: 12700 ng·h/mL | Compound (1) plasma AUC0-inf, Min [5]: 7670 ng·h/mL | Compound (1) plasma AUC0-tlast, Max [5]: 12700 ng·h/mL | Compound (1) plasma AUC0-tlast, Min [5]: 7660 ng·h/mL | Compound (1) plasma Cmax, Max [5]: 16700 ng/mL | Compound (1) plasma Cmax, Min [5]: 6790 ng/mL | Compound (1) plasma t1/2, Max [5]: 1.50 h | Compound (1) plasma t1/2, Min [5]: 0.83 h | Compound (1) CL/F, Max [6]: 423 L/h | Compound (1) CL/F, Mean [6]: 340 L/h | Compound (1) CL/F, Median [6]: 334 L/h | Compound (1) CL/F, Min [6]: 232 L/h | Compound (1) plasma AUC0-inf, Max [6]: 25800 ng·h/mL | Compound (1) plasma AUC0-inf, Min [6]: 14200 ng·h/mL | Compound (1) plasma AUC0-tlast, Max [6]: 25800 ng·h/mL | Compound (1) plasma AUC0-tlast, Min [6]: 14200 ng·h/mL | Compound (1) plasma Cmax, Max [6]: 22900 ng/mL | Compound (1) plasma Cmax, Min [6]: 13200 ng/mL | Compound (1) plasma t1/2, Max [6]: 1.64 h | Compound (1) plasma t1/2, Min [6]: 0.79 h
